Activity calls are given as the source filed them.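 Rule for the calls: active = compounds giving half or more protection of infected cells from virus-caused growth loss, again on retest; inactive = the rest.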
Test system: CEM cells HIV-1 protection, formazan growth assay
Assay: NCI AIDS Antiviral Assay
Conditions: for IC50: measured here: growth of uninfected CEM cells
How it was run: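 Human CEM cells, uninfected and HIV-1-infected, exposed to five drug concentrations; growth measured by soluble formazan assay and scored as percent protection from infection, with protecting compounds retested.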

CCC(=O)[O-].CCC(=O)[O-].N.N.N.N.[Co+3].[O-][Cl+3]([O-])([O-])[O-]
outcome: inactive

CCC[CH2][Sn]([CH2]CCC)([O]C(=O)c1cccc(F)c1)[O]C(=O)c1cccc(F)c1
EC50: > 10.2 µM
IC50: 6.61 µM

Cc1cc(C23OC4COC(C)(C)OC4C2OC(C)(C)O3)nc2ccccc12 (stereo unspecified)
EC50: > 200 µM
IC50: 102 µM

O=C1NC(Cc2ccc(O)c(O)c2)C(=O)N2CCCC12 (stereo unspecified)
EC50: > 200 µM
IC50: > 200 µM

CC(C)Oc1nc(N2CCNCC2)nc2c1CCCC2
outcome: inactive

O=[N+]([O-])c1ccc(COc2cccc3cccnc23)cc1
EC50: > 200 µM
IC50: 2.14 µM

O=[N+]([O-])c1ccc2oc(=Nc3ccccc3)c(Nc3ccccc3)nc2c1
EC50: > 200 µM
IC50: 166 µM

CC(=O)N1c2ccccc2N(C(C)=O)C1c1ccc(C2N(C(C)=O)c3ccccc3N2C(C)=O)[nH]1
outcome: inactive

COc1cc2c(c(O)c1OC)C(=O)[C@@H]1CCC(=O)N1C2
EC50: > 123 µM
IC50: 112 µM

CCOC(=O)Nc1nc2ccn(C)c2s1
EC50: > 200 µM
IC50: > 200 µM

N/C=N/S(=O)(=O)c1ccc(NC(=O)COC(=O)c2cccc3c(=O)c4ccccc4[nH]c23)cc1
outcome: inactive

COC(=O)c1ccccc1C1CN=NC12Cc1c(C)cccc1C2=O (stereo unspecified)
EC50: > 200 µM
IC50: 151 µM

CC1(C)Oc2cc3oc(C(=O)O)cc(=O)c3cc2-c2ccc(O)cc21
EC50: > 490 µM
IC50: 347 µM

CC(=O)NC1(C)CCC(C(C)(C)NC(C)=O)CC1 (stereo unspecified)
EC50: > 200 µM
IC50: > 200 µM

CC(C)[C@@]12O[C@@H]1CC13OC1[C@@H](O)CC[C@@]32O (stereo partly specified)
EC50: > 200 µM
IC50: > 200 µM

CCOC(=O)/C(C#N)=C/c1ccc2c(-c3c(OCC)ccc4cc(/C=C(\C#N)C(=O)OCC)ccc34)c(OCC)ccc2c1
EC50: > 200 µM
IC50: > 200 µM

COc1ccccc1/C=C/C(=O)O
EC50: > 525 µM
IC50: > 525 µM

Nc1n[n+]([O-])c2cc([N+](=O)[O-])ccc2[n+]1[O-]
EC50: > 20 µM
IC50: 0.603 µM

CS(=O)(=O)OCCN(CCOS(C)(=O)=O)c1ccc(C=O)cc1
EC50: > 200 µM
IC50: 0.479 µM

O=C(O)C1CCC(=O)N1S(=O)(=O)c1ccccc1 (stereo unspecified)
outcome: inactive

CCOC(=O)[C@H]1C[C@H]2O[C@H]2C[C@@H]1C
outcome: inactive

COC(=O)CCCC=C(c1cc(F)c(OC)c(C(=O)OC)c1)c1cc(F)c(OC)c(C(=O)OC)c1
EC50: 1.7 µM
IC50: 64.6 µM

COc1ccc2c(=O)c(-c3ccccc3)c(C)oc2c1
EC50: > 200 µM
IC50: 75.9 µM

CC(C)(C)c1ccc(OP(=S)(NN)Oc2ccc(C(C)(C)C)cc2)cc1
EC50: > 61.7 µM
IC50: 30.2 µM

O=C1C(=O)c2ccccc2C(O)=C1Sc1ccc(Cl)cc1
EC50: > 200 µM
IC50: 17.4 µM

CN1CC(=O)NC2C(=CN(Cc3ccccc3)c3ccccc32)C1=O (stereo unspecified)
EC50: > 200 µM
IC50: > 200 µM

O=S1OCCO1
EC50: > 2290 µM
IC50: > 2290 µM

COCC(=O)C1CC[C@@H]2[C@H](CC[C@]3(C)[C@@H](OC(C)=O)CC[C@@H]23)[C@H]1C(=O)OC (stereo partly specified)
EC50: > 50.1 µM
IC50: > 50.1 µM

CC(C)CC(NC(=O)OC(C)(C)C)C(=O)Nc1ccc(Nc2nc(F)nc(-c3c4ccccc4cn3C)n2)cc1 (stereo unspecified)
EC50: > 18.2 µM
IC50: 16.6 µM

COc1ccc(C2C(Cl)C(=O)N2n2cnc3ccccc3c2=O)cc1OC (stereo unspecified)
EC50: > 339 µM
IC50: 46.8 µM

O=CN/C=C/c1ccccc1O
EC50: > 200 µM
IC50: > 200 µM

CCOC(=O)C1C(=O)CC(C)(O)C(C(=O)OCC)C1c1ccc(N(C)C)cc1 (stereo unspecified)
EC50: > 200 µM
IC50: > 200 µM

OC1CCC[C@@H]1Sc1ccccc1 (stereo partly specified)
outcome: inactive

O=C(CC(=O)n1nc(-c2ccccc2)c(N=Nc2ccc(Cl)cc2)c1-c1ccccc1)Nc1cccc(Cl)c1
EC50: > 200 µM
IC50: 81.3 µM

Cc1ccc(S(=O)(=O)N(C)c2ccccc2)cc1
EC50: > 200 µM
IC50: 52.5 µM

CN1C(=O)C2CC(=O)N(Cc3ccccc3)C(=O)C2C1=O (stereo unspecified)
EC50: > 288 µM
IC50: > 288 µM

Cc1ccc([P+](Cc2ccccc2)(c2ccccc2)c2ccccc2)cc1
EC50: > 200 µM
IC50: 1.1 µM

NC(N)=NC(P(=O)(O)O)P(=O)(O)O
EC50: > 200 µM
IC50: > 200 µM

CCOc1ccc(C(=O)Nc2ccc(C3=NCCN3)cc2)cc1C(=O)Nc1ccc(C2=NCCN2)cc1
EC50: 2.95 µM
IC50: 117 µM

O=C(NC(Cc1c[nH]c2ccccc12)C(=O)O)/C(=C/c1ccccc1O)NC(=O)c1ccccc1 (stereo unspecified)
EC50: > 200 µM
IC50: > 200 µM

O=c1[nH]ccc(CNC23CC4CC(CC(C4)C2)C3)c1O
EC50: > 45.7 µM
IC50: > 45.7 µM

CCc1c(Cc2cc(C)cc(C)c2)n(COCCO[Si](C)(C)C(C)(C)C)c(=O)[nH]c1=O
EC50: 0.646 µM
IC50: 11.5 µM

CN1CCC23c4c5cc(-c6cc7c8c(c6O)OC6C(O)C=CC9C(C7)N(C)CCC896)c(O)c4OC2C(O)C=CC3C1C5 (stereo unspecified)
outcome: inactive

O=C(CC1(O)C(=O)Nc2ccc(Br)cc21)c1cccc([N+](=O)[O-])c1 (stereo unspecified)
EC50: > 174 µM
IC50: 93.3 µM

FC(F)(F)c1ccc2c(c1)N(CCCNCCN1CCOCC1)c1ccccc1S2
EC50: > 355 µM
IC50: 20.9 µM

C=C1CC2C(=O)N(c3ccccc3)C(=O)C2CC1n1[nH]c(=O)n(Cc2ccccc2)c1=O (stereo unspecified)
EC50: > 219 µM
IC50: > 219 µM

COc1ccc(OC)c2c3c([nH]c12)C(=O)Nc1nc(N)nc(N)c1C3
EC50: > 20 µM
IC50: 1 µM

Cc1ccc(Nc2ccc3c4c(cc(=O)n3C)-c3ccccc3C(=O)c24)c(S(=O)(=O)O)c1
EC50: > 174 µM
IC50: > 174 µM

CCCCCCCC/C=C\CCCCCCCCN=Cc1c(O)c(O)c(C(C)C)c2cc(C)c(-c3c(C)cc4c(C(C)C)c(O)c(O)c(C=NCCCCCCCC/C=C\CCCCCCCC)c4c3O)c(O)c12
outcome: inactive

O=S(=O)(O)c1cc(N=Nc2ccc(/C=C/c3ccc(N=Nc4cc(S(=O)(=O)O)c5cccnc5c4O)cc3S(=O)(=O)O)c(S(=O)(=O)O)c2)ccc1/C=C/c1ccc(N=Nc2cc(S(=O)(=O)O)c3cccnc3c2O)cc1S(=O)(=O)O
EC50: 0.832 µM
IC50: 1.95 µM

N#CC12C(=O)N3C(=NC(c4ccco4)NC3c3ccco3)C1(C#N)C(c1ccco1)NC1=C2CCCC1 (stereo unspecified)
EC50: > 200 µM
IC50: > 200 µM

Clc1ccc(C=Nc2ccc(SSc3ccc(N=Cc4ccc(Cl)cc4)cc3)cc2)cc1
EC50: > 200 µM
IC50: 22.4 µM

Cc1c(-c2nnc(-c3ccccc3)o2)c(=O)n(-c2ccccc2)n1C
EC50: > 200 µM
IC50: > 200 µM

c1ccc2c(c1)CCc1c-2n(CCN2CCOCC2)c2ccccc12
EC50: > 200 µM
IC50: > 200 µM

CC(C)[Si](OC1=CCC[C@H]2NC(=O)[C@@H](Cc3ccccc3)[C@@]12C)(C(C)C)C(C)C
EC50: > 200 µM
IC50: 12 µM

CN(CCS(=O)(=O)N1C(=O)C2CCCN2C(=O)[C@@H]1Cc1ccccc1)C(=O)OCc1ccccc1 (stereo partly specified)
EC50: > 50.1 µM
IC50: > 50.1 µM

CCCN(CCC)C1CCc2c(ccc3cc[nH]c23)C1 (stereo unspecified)
outcome: inactive

O=C1CC2C=CC1C2CO (stereo unspecified)
outcome: inactive

O=C(N=C1C(=O)C2(CCCCC2)C2(N=C(c3ccccc3)OC2=O)C12CCCCC2)c1ccccc1 (stereo unspecified)
EC50: > 27.5 µM
IC50: 10 µM

O=c1ccc2cc(O)c(O)cc2o1
EC50: > 1410 µM
IC50: 93.3 µM

Nc1nc(SC2CCCCC2)nc2c1ncn2C1OC(CO)C(O)C1O (stereo unspecified)
EC50: > 200 µM
IC50: 138 µM

C=C1C2CC[C@H]3C45C=NC[C@](C)(CCC4)[C@H]5CCC3(C2)[C@H]1O
outcome: inactive

Cc1ccc(C(=O)O)cc1NC(=O)c1cc(/C=C/c2ccccc2)[nH]c(=S)n1
EC50: > 240 µM
IC50: > 240 µM

O=C1NC(=O)C(c2ccccc2)O1 (stereo unspecified)
EC50: > 1410 µM
IC50: 447 µM

CCOC(=O)NC(Nc1ncccn1)(C(F)(F)F)C(F)(F)F
EC50: > 191 µM
IC50: 186 µM

CCOC(=O)C(CC[C@@H]1N[C@H](C(N)=O)Cc2c1[nH]c1ccccc21)C(=O)OCC
EC50: > 89.1 µM
IC50: > 89.1 µM

O=C(Nc1cc(Cl)c(Cl)cc1Cl)C(=O)C(C(=O)c1ccc(Cl)c(Cl)c1)C1OC(=O)c2ccccc21 (stereo unspecified)
EC50: > 45.7 µM
IC50: 22.4 µM

O=c1oc2ccccc2c2c1Sc1ccccc1N2
EC50: > 51.3 µM
IC50: > 51.3 µM

CN1C(=O)C(O)CC1c1ccc(C(F)(F)F)cc1 (stereo unspecified)
outcome: inactive

COC(=O)c1cc(=O)nc2cc3cccccc3n12
outcome: inactive

CC1=C(C(=O)Nc2ccccc2)C(c2ccc(C(C)C)cc2)C(C(=O)Nc2ccccc2)=C(C)N1
outcome: inactive

Nc1[nH]c(=S)nc2nc3c4ccccc4c4ccccc4c3nc12
EC50: > 200 µM
IC50: > 200 µM

COc1ccc(C2c3cc4c(cc3OC(NNS(=O)(=O)c3ccc(C)cc3)C2C)OCO4)cc1 (stereo unspecified)
EC50: > 200 µM
IC50: 26.3 µM

Cc1c(C#N)c2nc(C(=O)c3ccc(Br)cc3)cc(-c3ccc(Br)cc3)n2c1C
EC50: > 50.1 µM
IC50: > 50.1 µM

COc1cc(-c2oc3c(OC)c(OC)c(OC)c(OC)c3c(=O)c2OC)cc(OC)c1OC
EC50: > 200 µM
IC50: 17.8 µM

NNC(=O)c1n[nH]n(N)c1=S
EC50: > 200 µM
IC50: > 200 µM

COc1cccc2c1CCc1ccccc1CC2=O
EC50: > 53.7 µM
IC50: > 53.7 µM

O=c1[nH]c2nc(SCc3ccccc3)n(Cc3ccccc3)c2c(=O)n1OS(=O)(=O)c1ccccc1
EC50: > 200 µM
IC50: 75.9 µM

Nc1ccc2[nH]c(C(=O)N3CC(CCl)c4c3cc(N)c3ccccc43)cc2c1 (stereo unspecified)
EC50: > 0.2 µM
IC50: 0.00417 µM

CC(C)=[CH][Sb]([Br])([CH]=C(C)C)([CH]=C(C)C)[c]1ccccc1
EC50: > 562 µM
IC50: 6.76 µM

COC(=O)[C@H](C)NC(=O)[C@H](CSC)N1C(=O)N[C@@H](C(C)C)C1=O
EC50: > 200 µM
IC50: 24.5 µM

O=c1[nH]/c(=C/c2ccc3c(c2)OCO3)c(=O)[nH]/c1=C/c1ccc2c(c1)OCO2
outcome: inactive

Brc1c(OCc2ccccc2)ccc2ccccc12
EC50: > 200 µM
IC50: 191 µM

COc1ccc2[nH]c(C)cc2c1CN
EC50: > 575 µM
IC50: 120 µM

Cc1ccc(S(=O)c2sccc2C=O)cc1 (stereo unspecified)
EC50: > 200 µM
IC50: 9.77 µM

COc1cc(C2c3cc4c(cc3OC(NCCO)C2C)OCO4)cc(OC)c1OC (stereo unspecified)
EC50: > 20 µM
IC50: 0.24 µM
